The structures appear in SMILES notation. A value given as a limit tells only on which side of the number the result lay.

For one data set, the system named is Coxsackievirus B3-H3. In words: Virus CPE assay, CVB3-H3 in HeLa-RW cells. Type of data set: cell-based. As to conditions: >10/>25 = no antiviral activity at 10 or 25 μM.
The subject of another data set is Poliovirus 1. In words: microbe, parasite or virus in culture. As to conditions: Enterovirus C, read-out: EC50 PV1. Format: cell-based.
The next data set relates to Poliovirus 3. The data set can be described thus: microbe, parasite or virus in culture. Format: cell-based. As to conditions: Enterovirus C, read-out: EC50 PV3.
The subject of a further data set is Coxsackievirus B1. The data set can be described thus: Virus CPE assay, CVB1 in HeLa-RW cells. Type of data set: cell-based. As to conditions: Enterovirus B, >10 = no antiviral activity at 10 μM.
In a further data set the test system is Coxsackievirus B2. In words: Virus CPE assay, CVB2 in HeLa-RW cells. Type of data set: cell-based. As to conditions: Enterovirus B, >10 = no antiviral activity at 10 μM.
Another data set has as its system Coxsackievirus B4. In words: Virus CPE assay, CVB4 in HeLa-RW cells. Format: cell-based. As to conditions: Enterovirus B, >10 = no antiviral activity at 10 μM.
In the next data set the test system is Coxsackievirus B5. The data set can be described thus: Virus CPE assay, CVB5 in HeLa-RW cells. Type of data set: cell-based. As to conditions: Enterovirus B, >10 = no antiviral activity at 10 μM.
Another data set concerns Enterovirus 71. In words: Virus CPE assay, EV71 in LLC cells. Format: cell-based. As to conditions: Enterovirus A, >10 = no antiviral activity at 10 μM.
Another data set concerns Coxsackievirus A9. The data set can be described thus: Virus CPE assay, COX A9 in LLC cells. Type of data set: cell-based. As to conditions: Enterovirus B, >10 = no antiviral activity at 10 μM.
The subject of a further data set is Echovirus 6. The data set can be described thus: Virus CPE assay, ECHO06 in LLC cells. Conditions: Enterovirus B, >10 = no antiviral activity at 10 μM. Type of data set: cell-based.
Another data set deals with Echovirus 7. In words: Virus CPE assay, ECHO07 in LLC cells. Type of data set: cell-based. Conditions: Enterovirus B, >10 = no antiviral activity at 10 μM.
A further data set deals with Echovirus 9. In words: Virus CPE assay, ECHO09 in LLC cells. Format: cell-based. As to conditions: Enterovirus B, >10 = no antiviral activity at 10 μM.
In another data set the test system is Echovirus 11. The data set can be described thus: Virus CPE assay, ECHO11 in LLC cells. Format: cell-based. Conditions: Enterovirus B, >10 = no antiviral activity at 10 μM.
In a further data set the test system is Echovirus 25. In words: Virus CPE assay, ECHO25 in LLC cells. Format: cell-based. Conditions: Enterovirus B, >10 = no antiviral activity at 10 μM.
The next data set relates to Echovirus 30. The data set can be described thus: Virus CPE assay, ECHO30 in LLC cells. Format: cell-based. As to conditions: Enterovirus B, >10 = no antiviral activity at 10 μM.
A further data set relates to HeLa-RW cells. The data set can be described thus: Cytotoxicity (CC50) in HeLa-RW cells. Type of data set: cell-based. As to conditions: concentration that reduces host cell viability by 50%. As to the method:
(§1) Each compound is initially tested against each virus at 10 μM in a virus CPE assay. A compound that is active against a virus, protecting the cells from CPE, is further evaluated for its 50% effective concentration (EC50) value and 50% cytotoxicity concentration (CC50) value. Serial 2-fold dilutions of an active compound are prepared. For EC50 value determination, a 7-point dose-response curve is constructed using a virus CPE assay and EC50 value is estimated using four parameter model or sigmoidal model. For CC50 value determination, cells are incubated with serial 2-fold dilutions of a compound for the same period as the virus CPE assay, and then cells were fixed, stained and read as in the virus CPE assay.
(§2) Table 3 provides the compound concentration in μM units that reduces cell viability of the host cell by 50% (CC50) for certain compounds of the present technology for HeLa-RW and LLC cells. Blank cells indicate that the cytotoxicity assessment is not yet complete.

The next data set relates to LLC cells. The data set can be described thus: Cytotoxicity (CC50) in LLC cells. Conditions: concentration that reduces host cell viability by 50%. Type of data set: cell-based. As to the method: as §1, §2
Data set [1] has as its system Enterovirus D68 strain Fermon. The data set can be described thus: Virus CPE assay, Enterovirus D68 Fermon in RD cells. Conditions: Enterovirus D. Format: cell-based. As to the method: (§3) Cells growing in 96 well plates are infected with a given virus at given low multiplicities of infection pre-determined to result in 100% cytopathic effects (CPE) in the cultures after 3-4 days incubation. Cultures are monitored daily for microscopic signs of typical CPE: rounding of cells and detachment. […] Dead cells and debris are washed out and the remaining blue stain intensity in each well is quantified by spectrophotometry at a wavelength of 590 nm (OD590) as a measurement of viability. […] Serial 2-fold dilutions of an active compound are prepared. […] Table 4 provides the results of cell-based assays with RD cells evaluating the antiviral activities of certain representative compounds of the present technology with certain strains of Enterovirus D68, namely strains Fermon (“D68/Fermon”), US/Mo/14-18949 (“D68/US/Mo/14-18949”), and US/KY/14-18953 (“D68/US/KY/14-18953”). The values indicated in the strain columns are EC50 values in μM units. The CC50 values (in μM units) for RD cells are also provided for evaluation of SI50.

In data set [2] the test system is Enterovirus D68 strain US/KY/14-18953. In words: Virus CPE assay, Enterovirus D68 US/KY/14-18953 in RD cells. Type of data set: cell-based. As to conditions: Enterovirus D. How it is done: as §3
Data set [3] is described as follows: Cytotoxicity (CC50) in RD cells. Type of data set: cell-based. Conditions: human. As to the method:
as §1
Table 4 provides the results of cell-based assays with RD cells evaluating the antiviral activities of certain representative compounds of the present technology with certain strains of Enterovirus D68, namely strains Fermon (“D68/Fermon”), US/Mo/14-18949 (“D68/US/Mo/14-18949”), and US/KY/14-18953 (“D68/US/KY/14-18953”). The values indicated in the strain columns are EC50 values in μM units. The CC50 values (in μM units) for RD cells are also provided for evaluation of SI50.

For a further data set, the system named is Enterovirus D68. The data set can be described thus: Antiviral cell-based assays, summary for at least one strain. Conditions: Enterovirus D, not named, read-out: EC50 against at least one strain. As to the method:
as §3

A short description of data set [4]: Cytotoxicity (CC50) in LLC cells. Conditions: LLC cells; concentration that reduces host cell viability by 50%. Type of data set: cell-based. As to the method: as §1, §2
The test system of data set [5] is Enterovirus D68 strain US/Mo/14-18949. The data set can be described thus: Virus CPE assay, Enterovirus D68 US/Mo/14-18949 in RD cells. Format: cell-based. As to conditions: for EC50: Enterovirus D, RD cells. As to the method:
as §3

Consider `CC(C)n1ncc2c(C(=O)Nc3ccc(F)cc3)nc(-c3cccs3)nc21` [JX-036], for which the EC50 in the data set on Coxsackievirus B3-H3, in the data set on Poliovirus 1, with Poliovirus 3, with Coxsackievirus B1, with Coxsackievirus B2 and with Coxsackievirus B4 was more than 10000 nM in each case. For the same molecule, the EC50 in the data set on Coxsackievirus B5, in the data set on Enterovirus 71, in the data set on Coxsackievirus A9, with Echovirus 6, with Echovirus 7 and with Echovirus 9 was more than 10000 nM throughout. Moreover, the EC50 in the data set with Echovirus 11, with Echovirus 25 and in the data set on Echovirus 30 was more than 10000 nM in each case.

For `CC(C)n1ccc2c(C(=O)Nc3ccncc3)cc(-c3cccs3)nc21` [JX-063], the EC50 in the data set with Coxsackievirus B3-H3, with Poliovirus 1, with Poliovirus 3, in the data set with Coxsackievirus B1, with Coxsackievirus B2 and in the data set with Coxsackievirus B4 was more than 10000 nM in each case. The molecule further displayed an EC50 with Coxsackievirus B5 of more than 10000 nM.

Take `CC(C)n1nnc2c(C(=O)Nc3ccc(F)cc3)cc(-c3cccs3)nc21` [JX-035]: the EC50 with Coxsackievirus B3-H3, with Poliovirus 1, with Poliovirus 3, in the data set with Coxsackievirus B1, with Coxsackievirus B2 and in the data set on Coxsackievirus B4 was more than 10000 nM throughout. For the same molecule, the EC50 in the data set with Coxsackievirus B5, with Enterovirus 71, with Coxsackievirus A9, in the data set with Echovirus 6, with Echovirus 7 and in the data set with Echovirus 9 was more than 10000 nM each time. Besides, the EC50 in the data set on Echovirus 11, in the data set on Echovirus 25 and in the data set on Echovirus 30 was more than 10000 nM in each case.

Take `CC(C)n1ccc2c(C(=O)Nc3ccccn3)cc(-c3cccs3)nc21` [JX-072]: the EC50 with Coxsackievirus B3-H3 is 2200 ± 400 nM; in the data set with Poliovirus 1, more than 10000 nM; in the data set on Poliovirus 3 it was more than 10000 nM; in the data set with Coxsackievirus B1, 1560 nM; with Coxsackievirus B2, 2330 nM; in the data set on Enterovirus 71 it was 1200 nM. The EC50 was 3000 nM with Echovirus 7, less than 400 nM in [1], 600 nM in [2] and less than 1000 nM in the data set on Enterovirus D68. The CC50 was 18800 nM in the data set on HeLa-RW cells, more than 200000 nM in the data set with LLC cells and 25000 nM in data set [3].

For the molecule `CC(C)n1ccc2c(C(=O)Nc3ccc(F)cc3)cc(-c3cccs3)nc21` [JX-037], the EC50 was 3100 ± 100 nM in the data set on Coxsackievirus B3-H3; more than 25000 nM with Poliovirus 1; more than 25000 nM with Poliovirus 3; 3600 ± 600 nM with Coxsackievirus B1; 3600 ± 600 nM in the data set with Coxsackievirus B2; 3100 ± 100 nM in the data set on Coxsackievirus B4. Also, the half-maximal effective concentration (EC50) in the data set on Coxsackievirus B5 is 2700 ± 600 nM; with Enterovirus 71, 2200 nM; in data set [1] it was 860 ± 310 nM; in data set [5] it was 570 ± 150 nM; in data set [2], 1100 ± 300 nM; in the data set on Enterovirus D68, less than 1000 nM. Further, the CC50 is 100000 nM in [4] and more than 200000 nM in data set [3]. Further, in data set [5] (Enterovirus D68/US/Mo/14-18949, >200/0.57), the SI result is given as “over 350”.

On to `CC(C)n1ccc2c(C(=O)Nc3cccnc3)cc(-c3cccs3)nc21` [JX-062], for which the EC50 was 1300 nM with Coxsackievirus B3-H3; more than 10000 nM in the data set with Poliovirus 1; more than 10000 nM with Poliovirus 3; 1200 nM in the data set with Coxsackievirus B1; 1200 nM in the data set with Coxsackievirus B2; 1200 nM in the data set with Coxsackievirus B4. Further, the EC50 stood at 1200 nM in the data set with Coxsackievirus B5; 800 nM with Enterovirus 71; 400 nM in the data set on Echovirus 9; 1200 nM with Echovirus 11; 160 ± 30 nM in data set [1]; 130 ± 30 nM in data set [5]. Also, the results for the EC50 (in data set [2]; in the data set on Enterovirus D68) were 260 ± 70 nM and less than 1000 nM, respectively. Further, the CC50 amounted to 18000 nM in the data set with HeLa-RW cells, 25000 nM in the data set with LLC cells and 25000 nM in data set [3].

On to `CC(C)n1ncc2c(C(=O)Nc3ccccc3F)cc(-c3cccs3)nc21` [JX-001, reference compound], for which the EC50 in the data set with Coxsackievirus B3-H3 amounted to 1400 ± 600 nM; in the data set with Poliovirus 1, 7000 nM; with Poliovirus 3, 7000 nM; with Coxsackievirus B1, 2400 ± 200 nM; in the data set with Coxsackievirus B2 it was 2800 ± 400 nM; with Coxsackievirus B4, 2300 nM. For the same molecule, the EC50 with Coxsackievirus B5 is 2300 nM; with Enterovirus 71, 2300 ± 1200 nM; in the data set with Coxsackievirus A9 it was 2600 ± 900 nM; in the data set with Echovirus 6, 2300 ± 900 nM; in the data set on Echovirus 7, 2400 nM; in the data set on Echovirus 9, 2100 ± 1200 nM. The EC50 with Echovirus 11 came to 1500 ± 400 nM; with Echovirus 25 it was 3000 nM; with Echovirus 30 it was 1200 nM; in [1], 350 ± 50 nM; in data set [5] it was 330 ± 50 nM; in data set [2] it was 500 ± 170 nM. The CC50 in the data set with HeLa-RW cells was 12500 nM; with LLC cells, 50000 nM; in data set [3], 200000 nM.

For the origin of these results see patent publication US11180498B2, “Substituted pyrrolo[2,3-b]pyridines, pyrazolo[3,4-d]pyrimidines and [1,2,3]triazolo[4,5-b]pyridines as potent antivirals” (The Regents of the University of California, priority 2017, dated 2021).
